Measurements published in the supplement of paper PMC10307832.

Columns and labels:
Experiment in all cases: relative viability (nuclei count vs DMSO), 5 days (fraction); higher = more cells survive
[1] = compound: C=CC(=O)Nc1cc(-n2c(=O)ccc3cnc4ccc(-c5ccc(NS(C)(=O)=O)cc5)cc4c32)ccc1C [BMX-IN-1] + C[C@]1(O)C[C@@H](c2nc(-c3ccc4ccc(-c5ccccc5)nc4c3)c3c(N)nccn32)C1 [Linsitinib] (partner 1 µM)
How it was run: (§1)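 Dosing by pin tool came one day after lung cancer cell lines were seeded in 1536-well plates, using either one drug or a fixed anchor-drug dose plus five library-drug doses (not always all listed) in √10 steps. After 5 days, nuclei were counted on 4× images. Relative viability is treated-well nuclei count divided by vehicle-well nuclei count, and values are medians of duplicate plates.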

[2] = compound: C=CCc1cccc(/C=N/NC(=O)CN2CCN(Cc3ccccc3)CC2)c1O [PAC-1] + C[C@@H](Oc1cc(-c2cnn(C3CCNCC3)c2)cnc1N)c1c(Cl)ccc(F)c1Cl [Crizotinib] (partner 1 µM)
How it was run: as §1

[3] = compound: C=CCc1cccc(/C=N/NC(=O)CN2CCN(Cc3ccccc3)CC2)c1O [PAC-1] + C[C@]1(O)C[C@@H](c2nc(-c3ccc4ccc(-c5ccccc5)nc4c3)c3c(N)nccn32)C1 [Linsitinib] (partner 1 µM)
How it was run: as §1

[4] = compound: C=CCc1cccc(/C=N/NC(=O)CN2CCN(Cc3ccccc3)CC2)c1O [PAC-1] + CC(=O)c1c(C)c2cnc(Nc3ccc(N4CCNCC4)cn3)nc2n(C2CCCC2)c1=O [Palbociclib] (partner 0.5 µM)
How it was run: as §1

[5] = compound: C=CCc1cccc(/C=N/NC(=O)CN2CCN(Cc3ccccc3)CC2)c1O [PAC-1] + CC(=O)Nc1cccc(-n2c(=O)n(C3CC3)c(=O)c3c(Nc4ccc(I)cc4F)n(C)c(=O)c(C)c32)c1 [Trametinib] (partner 0.02 µM)
How it was run: as §1

Cell Line | relative viability ([1]; first compound 0.02 µM) | relative viability ([1]; first compound 0.2 µM) | relative viability ([1]; first compound 0.6325 µM) | relative viability ([1]; first compound 2 µM) | relative viability ([2]; first compound 0.02 µM) | relative viability ([2]; first compound 0.06325 µM) | relative viability ([2]; first compound 0.2 µM) | relative viability ([2]; first compound 2 µM) | relative viability ([3]; first compound 0.02 µM) | relative viability ([3]; first compound 0.06325 µM) | relative viability ([3]; first compound 0.2 µM) | relative viability ([3]; first compound 2 µM) | relative viability ([4]; first compound 0.02 µM) | relative viability ([4]; first compound 0.06325 µM) | relative viability ([4]; first compound 0.2 µM) | relative viability ([4]; first compound 2 µM) | relative viability ([5]; first compound 0.02 µM) | relative viability ([5]; first compound 0.06325 µM) | relative viability ([5]; first compound 0.2 µM) | relative viability ([5]; first compound 2 µM)
SK-LU-1 | 1.3 | 1.15 | 1.21 | 1.09 | 0.788 | 0.856 | 0.93 | 0.794 | 1.17 | 1.06 | 1.04 | 0.716 | 0.391 | 0.41 | 0.394 | 0.369 | 0.495 | 0.481 | 0.484 | 0.584
RERF-LC-KJ | 0.911 | 0.974 | 0.951 | 0.935 | 0.814 | 0.868 | 0.811 | 0.923 | 0.904 | 0.818 | 0.861 | 0.887 | 1.13 | 1.02 | 0.997 | 0.912 | 0.901 | 0.91 | 0.791 | 0.79
LXF-289 | 0.982 | 1.05 | 1.07 | 1.04 | 0.833 | 0.807 | 0.789 | 0.835 | 0.972 | 0.992 | 0.946 | 0.909 | 0.605 | 0.599 | 0.597 | 0.597 | 0.7 | 0.718 | 0.705 | 0.675
LC-2-ad | 1.03 | 0.861 | 0.823 | 0.852 | 0.383 | 0.436 | 0.443 | 0.398 | 0.849 | 0.825 | 0.782 | 0.78 | 0.513 | 0.439 | 0.492 | 0.496 | 0.933 | 0.919 | 0.897 | 0.954
NCI-H23 | 0.614 | 0.606 | 0.471 | 0.548 | 0.481 | 0.396 | 0.489 | 0.535 | 0.534 | 0.574 | 0.564 | 0.505 | 0.629 | 0.521 | 0.524 | 0.533 | 0.308 | 0.388 | 0.336 | 0.442
